Measured values: patent US8309558B2, “Compounds for the treatment of hepatitis C” (Bristol-Myers Squibb Company, priority 2008, dated 2012)

Tests used:
[1] = molecular target: T1, HCV NS5B RdRp genotype 1b (Hepatitis C virus genotype 1b, UniProt Q9WMX2); assay: Standard HCV NS5B RdRp enzyme assay; format: biochemical; conditions: Table 1a; HCV NS5B RdRp genotype 1b; read-out: IC50
T1 construct: The protein was expressed with an 18 amino acid C-terminal truncation to enhance the solubility; made in house; host or cells: E. coli BL21(DE3), pET21a vector
Procedure: HCV NS5B RdRp cloning, expression, and purification. The cDNA encoding the NS5B protein of HCV, genotype 1b, was cloned into the pET21a expression vector. The protein was expressed with an 18 amino acid C-terminal truncation to enhance the solubility. The E. coli competent cell line BL21(DE3) was used for expression of the protein. Cultures were grown at 37° C. for ˜4 hours until the cultures reached an optical density of 2.0 at 600 nm. The cultures were cooled to 20° C. and induced with 1 mM IPTG. Fresh ampicillin was added to a final concentration of 50 μg/ml and the cells were grown overnight at 20° C.
Cell pellets (3 L) were lysed for purification to yield 15-24 mgs of purified NS5B. The lysis buffer consisted of 20 mM Tris-HCl, pH 7.4, 500 mM NaCl, 0.5% triton X-100, 1 mM DTT, 1 mM EDTA, 20% glycerol, 0.5 mg/ml lysozyme, 10 mM MgCl2, 15 ug/ml deoxyribonuclease I, and Complete TM protease inhibitor tablets (Roche). After addition of the lysis buffer, frozen cell pellets were resuspended using a tissue homogenizer. To reduce the viscosity of the sample, aliquots of the lysate were sonicated on ice using a microtip attached to a Branson sonicator. The sonicated lysate was centrifuged at 100,000×g for 1 hr at 4° C. and filtered through a 0.2 μm filter unit (Corning).
The protein was purified using three sequential chromatography steps: Heparin sepharose CL-6B, polyU sepharose 4B, and Hitrap SP sepharose (Pharmacia). The chromatography buffers were identical to the lysis buffer but contained no lysozyme, deoxyribonuclease I, MgC12 or protease inhibitor and the NaCl concentration of the buffer was adjusted according to the requirements for charging the protein onto the column. Each column was eluted with a NaCl gradient which varied in length from 5-50 column volumes depending on the column type. After the final chromatography step, the resulting purity of the enzyme is >90% based on SDS-PAGE analysis. The enzyme was aliquoted and stored at −80° C.
Standard HCV NS5B RdRp enzyme assay. HCV RdRp genotype 1b assays were run in a final volume of 60 μl in 96 well plates (Costar 3912). The assay buffer composed of 20 mM Hepes, pH 7.5, 2.5 mM KCl, 2.5 mM MgCl2, 1 mM DTT, 1.6 U RNAse inhibitor (Promega N2515), 0.1 mg/ml BSA (Promega R3961), and 2% glycerol. All compounds were serially diluted (3-fold) in DMSO and diluted further in water such that the final concentration of DMSO in the assay was 2%. HCV RdRp genotype 1b enzyme was used at a final concentration of 28 nM. A polyA template was used at 6 nM, and a biotinylated oligo-dT12 primer was used at 180 nM final concentration. Template was obtained commercially (Amersham 27-4110). Biotinylated primer was prepared by Sigma Genosys. 3H-UTP was used at 0.6 μCi (0.29 μM total UTP). Reactions were initiated by the addition of enzyme, incubated at 30° C. for 60 min, and stopped by adding 25 μl of 50 mM EDTA containing SPA beads (4 μg/μl, Amersham RPNQ 0007). Plates were read on a Packard Top Count NXT after >1 hr incubation at room temperature.
IC50 values for compounds were determined using seven different [I]. IC50 values were calculated from the inhibition using the formula y=A+((B−A)/(1+((C/x)^D))).

HCV replicon cells = assay: HCV replicon FRET / luciferase assay (96-well plates); format: cell-based; conditions: Hepatitis C virus, Table 1a; HCV replicon; read-out: EC50
Procedure, shortened: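 HCV replicon cells (with or without Renilla luciferase reporter) were plated with titrated compounds at 37 °C. After Alamar blue toxicity reading, cells were lysed in reagent containing 20 μM EDANS/DABCYL NS3 protease FRET peptide and 150 mM NaCl, read kinetically at 340/490 nm, or assayed by Dual-Glo luciferase.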

T1 sequence (Q9WMX2 2420-2992): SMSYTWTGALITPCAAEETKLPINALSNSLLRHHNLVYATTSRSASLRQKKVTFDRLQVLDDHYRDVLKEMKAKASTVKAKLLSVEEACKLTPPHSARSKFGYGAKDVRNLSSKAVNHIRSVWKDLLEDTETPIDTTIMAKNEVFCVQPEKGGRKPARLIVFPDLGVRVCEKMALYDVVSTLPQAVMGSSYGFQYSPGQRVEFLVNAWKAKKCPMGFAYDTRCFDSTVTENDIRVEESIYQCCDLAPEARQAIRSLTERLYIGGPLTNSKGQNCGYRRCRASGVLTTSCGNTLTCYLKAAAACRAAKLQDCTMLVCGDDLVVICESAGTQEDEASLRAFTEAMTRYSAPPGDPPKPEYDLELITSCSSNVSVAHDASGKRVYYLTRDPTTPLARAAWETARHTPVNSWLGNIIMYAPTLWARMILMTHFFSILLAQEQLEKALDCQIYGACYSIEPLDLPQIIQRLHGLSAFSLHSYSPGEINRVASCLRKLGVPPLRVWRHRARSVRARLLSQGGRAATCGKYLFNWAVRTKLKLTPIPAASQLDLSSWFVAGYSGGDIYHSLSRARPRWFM

Structure (SMILES)	IC50 [1] [nM]	EC50 (HCV replicon cells) [nM]
CNC(=O)c1c(-c2ccc(F)cc2)oc2ccc(-c3cccc(C(=O)NC(C)(C)C)c3)cc12	< 250	< 250
CNC(=O)c1c(-c2ccc(F)cc2)oc2ccc(-c3cccc(C(=O)N(C)C(C)(C)C)c3)cc12	< 250	< 250
CNC(=O)c1c(-c2ccc(F)cc2)oc2ccc(-c3cccc(C(=O)Nc4cc(C)nn4C)c3)cc12	< 250	< 250
CNC(=O)c1c(-c2ccc(F)cc2)oc2ccc(-c3cccc(C(=O)NCc4cccc(O)c4)c3)cc12	250 to 1000	< 250
CNC(=O)c1c(-c2ccc(F)cc2)oc2ccc(-c3cccc(C(=O)NCCC(C)(C)C)c3)cc12	< 250	< 250
CNC(=O)c1c(-c2ccc(F)cc2)oc2ccc(-c3cccc(C(=O)Nc4ccccc4-c4ccccc4)c3)cc12	1000 to 10000	< 250
CNC(=O)c1c(-c2ccc(F)cc2)oc2cc(N(CCO)S(C)(=O)=O)c(-c3cccc(C(=O)NC(C)(C)c4ccccc4)c3)cc12	< 250	< 250
CNC(=O)c1c(-c2ccc(F)cc2)oc2ccc(-c3cccc(C(=O)NC(C)(C)C(=O)N(C)C)c3)cc12	< 250	< 250
CNC(=O)c1c(-c2ccc(F)cc2)oc2cc(N)c(-c3cccc(C(=O)NC4(c5ccccc5)CC4)c3)cc12	< 250	< 250
CNC(=O)c1c(-c2ccc(F)cc2)oc2ccc(-c3cccc(-c4nnc(C(C)C)o4)c3)cc12	< 250	< 250
CNC(=O)c1c(-c2ccc(F)cc2)oc2ccc(-c3cc(C(=O)NCC(C)C)ccc3F)cc12	< 250	< 250
CNC(=O)c1c(-c2ccc(F)cc2)oc2ccc(-c3cccc(C(=O)NC(C)(C)C(=O)NC)c3)cc12	< 250	< 250
CNC(=O)c1c(-c2ccc(F)cc2)oc2ccc(-c3cccc(C(=O)NC(C)(C)C(=O)Nc4nccs4)c3)cc12	< 250	< 250
CNC(=O)c1c(-c2ccc(F)cc2)oc2ccc(-c3cccc(C(=O)NC(C)(C)C(=O)NCC(F)F)c3)cc12	< 250	< 250
CNC(=O)c1c(-c2ccc(F)cc2)oc2ccc(-c3cc(C(=O)CCC(C)C)ccc3OCCN(C)C)cc12	< 250	< 250
CNC(=O)c1c(-c2ccc(F)cc2)oc2ccc(-c3cn[nH]c3)cc12	> 10000	250 to 1000
CNC(=O)c1c(-c2ccc(F)cc2)oc2ccc(-c3ccc(OCC(C)C)cc3)cc12	> 10000	> 400
CNC(=O)c1c(-c2ccc(F)cc2)oc2ccc(-c3cc(OC)ncc3F)cc12	> 10000	> 620
CNC(=O)c1c(-c2ccc(F)cc2)oc2ccc(-c3ccc(NC(=O)OC(C)(C)C)cc3)cc12	> 10000	> 400
CNC(=O)c1c(-c2ccc(F)cc2)oc2ccc(-c3ccc(CO)cc3)cc12	> 10000	250 to 1000
CNC(=O)c1cccc(-c2ccc3oc(-c4ccc(F)cc4)c(C(=O)NC)c3c2)c1	1000 to 10000	250 to 1000
CCNC(=O)c1cccc(-c2ccc3oc(-c4ccc(F)cc4)c(C(=O)NC)c3c2)c1	250 to 1000	250 to 1000
CCCCNC(=O)c1cccc(-c2ccc3oc(-c4ccc(F)cc4)c(C(=O)NC)c3c2)c1	< 250	< 250
CNC(=O)c1c(-c2ccc(F)cc2)oc2ccc(-c3cccc(C(=O)NCCC#N)c3)cc12	250 to 1000	250 to 1000
CNC(=O)c1c(-c2ccc(F)cc2)oc2ccc(-c3cccc(C(=O)N(C)CC(C)C)c3)cc12	< 250	250 to 1000
CNC(=O)c1c(-c2ccc(F)cc2)oc2ccc(-c3cccc(C(=O)Nc4ccnn4C)c3)cc12	250 to 1000	250 to 1000

Structure (SMILES)	IC50 [1] [nM]	EC50 (HCV replicon cells) [nM]
CNC(=O)c1c(-c2ccc(F)cc2)oc2ccc(-c3cccc(C(=O)NCc4cnc(C)cn4)c3)cc12	250 to 1000	250 to 1000
CNC(=O)c1c(-c2ccc(F)cc2)oc2ccc(-c3cccc(C(=O)NCCc4cccs4)c3)cc12	250 to 1000	250 to 1000
CCOCCNC(=O)c1cccc(-c2ccc3oc(-c4ccc(F)cc4)c(C(=O)NC)c3c2)c1	< 250	250 to 1000
CNC(=O)c1c(-c2ccc(F)cc2)oc2ccc(-c3cccc(C(=O)NCC4CCOCC4)c3)cc12	< 250	250 to 1000
CNC(=O)c1c(-c2ccc(F)cc2)oc2ccc(-c3cccc(C(=O)NCc4nccs4)c3)cc12	250 to 1000	250 to 1000
CNC(=O)c1c(-c2ccc(F)cc2)oc2ccc(-c3cccc(C(=O)NC4CC4)c3)cc12	250 to 1000	250 to 1000
CNC(=O)c1c(-c2ccc(F)cc2)oc2ccc(-c3cccc(C(=O)N4CCc5ccccc54)c3)cc12	1000 to 10000	250 to 1000
CNC(=O)c1c(-c2ccc(F)cc2)oc2ccc(-c3cccc(C(=O)NCc4ccncc4)c3)cc12	< 250	250 to 1000
CNC(=O)c1c(-c2ccc(F)cc2)oc2ccc(-c3cccc(C(=O)NCC4CCCO4)c3)cc12 (stereo not drawn)	< 250	250 to 1000
CNC(=O)c1c(-c2ccc(F)cc2)oc2ccc(-c3cccc(C(=O)N4CCCC4)c3)cc12	250 to 1000	250 to 1000
CNC(=O)c1c(-c2ccc(F)cc2)oc2ccc(-c3cccc(C(=O)NCC4CCCCC4)c3)cc12	< 250	250 to 1000
CNC(=O)c1c(-c2ccc(F)cc2)oc2ccc(-c3cccc(C(=O)N4CCC4)c3)cc12	250 to 1000	250 to 1000
CNC(=O)c1c(-c2ccc(F)cc2)oc2ccc(-c3cccc(C(=O)NCc4ccccn4)c3)cc12	< 250	250 to 1000
CNC(=O)c1c(-c2ccc(F)cc2)oc2ccc(-c3cccc(C(=O)NCc4cccnc4)c3)cc12	< 250	250 to 1000
CNC(=O)c1c(-c2ccc(F)cc2)oc2ccc(-c3cccc(C(=O)Nc4nc(C)cs4)c3)cc12	< 250	250 to 1000
CNC(=O)c1c(-c2ccc(F)cc2)oc2ccc(-c3ccc(C(=O)NC(C)(C)C)cc3)cc12	1000 to 10000	250 to 1000
CNC(=O)c1c(-c2ccc(F)cc2)oc2ccc(-c3ccc(C(=O)NCC(C)C)cc3)cc12	> 10000	250 to 1000
CNC(=O)c1c(-c2ccc(F)cc2)oc2ccc(-c3ccc(C(=O)N(C)CCc4ccccn4)cc3)cc12	< 250	< 250
CNC(=O)c1c(-c2ccc(F)cc2)oc2ccc(-c3cccc(C(=O)Nc4ccncn4)c3)cc12	250 to 1000	250 to 1000
CNC(=O)c1c(-c2ccc(F)cc2)oc2ccc(-c3cccc(C(=O)Nc4cccc(C)c4)c3)cc12	250 to 1000	250 to 1000
CCOC(=O)CC(C)NC(=O)c1cccc(-c2ccc3oc(-c4ccc(F)cc4)c(C(=O)NC)c3c2)c1 (stereo not drawn)	< 250	250 to 1000
CNC(=O)c1c(-c2ccc(F)cc2)oc2ccc(-c3cccc(C(=O)NC(CC(C)C)C(N)=O)c3)cc12 (stereo not drawn)	250 to 1000	250 to 1000
CNC(=O)c1c(-c2ccc(F)cc2)oc2ccc(-c3cccc(C(=O)NC(C)(C)CC(C)=O)c3)cc12	250 to 1000	250 to 1000
CCn1nccc1NC(=O)c1cccc(-c2ccc3oc(-c4ccc(F)cc4)c(C(=O)NC)c3c2)c1	250 to 1000	250 to 1000
CNC(=O)c1c(-c2ccc(F)cc2)oc2ccc(-c3cccc(C(=O)N[C@H]4CCC[C@H]4C(N)=O)c3)cc12	250 to 1000	250 to 1000
